Entries after “also recorded” stand apart in the source; their conditions may differ. Read-outs that look alike come from different tables or passages of the source. Numbered stars: 1 amine (or outer) side, 2 acyl side, 3 side chain; on linkers, the order of the positions; unused ones are H or OH. Square brackets hold non-standard residues; d marks the D form. Peptide text beside a SMILES is read from it. * marks the point of attachment. UDPMurNAc = CC(=O)N[C@H]1[C@@H](OP(=O)(O)OP(=O)(O)OC[C@H]2O[C@@H](n3ccc(=O)[nH]c3=O)[C@H](O)[C@@H]2O)O[C@H](CO)[C@@H](O)[C@@H]1O[C@H](C)C(=O)*; d(γGlu) = O=C(O)[C@@H](CCC(=O)[*:2])N[*:1]; NBD = O=[N+]([O-])c1ccc(*)c2nonc12; GABA = NCCCC(=O)O
What was measured:
MraYBS [1] = biological target: T1, MraYBS (Bacillus subtilis, UniProt Q03521); assay: HPLC-based MraY functional assay (substrate activity); assay type: biochemical; conditions: for recognized as a MraYBS substrate: analogue 10 μM, C55P 200 μM; for recognized as a MraYBS substrate / conversion %: MraYBS 10 μg/mL; for recognized as a MraYBS substrate / substrate under extreme reaction conditions / conversion %: 37 °C; for substrate under extreme reaction conditions: Park's nucleotides 10 μM, MraYBS 40 μg/mL, C55P 1 mM, 24 h; for conversion %: lipid phosphates 200 μM, NBD-Park's nucleotide (6) 10 μM, 1 h, from consumption of 6, n = 3, average ± SD
T1 construct: MBP; made in house
T1 sequence (Q03521 1-324): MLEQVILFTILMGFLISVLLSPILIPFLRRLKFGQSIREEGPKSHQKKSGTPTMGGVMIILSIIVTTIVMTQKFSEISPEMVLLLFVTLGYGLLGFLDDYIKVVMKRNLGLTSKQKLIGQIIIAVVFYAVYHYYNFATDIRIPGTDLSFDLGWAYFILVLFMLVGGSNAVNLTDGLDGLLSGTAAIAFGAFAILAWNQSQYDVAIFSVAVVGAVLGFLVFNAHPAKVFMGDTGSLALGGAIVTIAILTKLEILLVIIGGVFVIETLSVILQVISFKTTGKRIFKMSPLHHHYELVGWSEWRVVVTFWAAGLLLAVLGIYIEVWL
Method: The purified MraY from Bacillus subtilis was prepared as described in our previous reports. […] […] The reaction mixtures were added by uridine (0.01 mg/mL) as the internal standard and heated to 100 °C to stop the transferring reaction. The samples were analyzed by RP-C18 HPLC with gradient elution of 0.25 M NH4HCO3(aq)/15% MeOH in water (100:0 to 0:100) at a flow rate of 1 mL/min over 45 min, and the peaks of substrates were monitored at UV 260 nm. For 6 and 11–17, the reaction mixture containing MraYBS (10 μg/mL), C55P (200 μM), 6-(7-Nitro-2,1,3-benzoxadiazol-4-ylamino)hexanoic acid (5 μM, internal standard) in 10 μL reaction buffer (30 mM Tris, 10 mM MgCl2, 10 mM NaCl, 0.1 mM Tween-20, 2.5% DMSO, pH 8.0) were pre-incubated at 37 °C for 15 min. […] The reaction mixtures were heated to 100 °C to stop the transferring reaction, and samples were analyzed by an anion-exchange column (SAX1, Supelco Co., 5 μm, 4.6 × 250 mm) with a linear gradient elution of NH4OAc (20 mM to 1 M in MeOH) at a flow rate of 1.0 mL/min over 30 min. The fluorescent substrates were monitored with λex 466 nm/λem 535 nm by fluorescence detector.

MraYBS [2] = biological target: T1, MraYBS; assay: Biolayer interferometry-based (BLI) binding assay; conditions: for binding affinity with MraYBS: concentrations up to 500 μM
Method: MraYBS binding was measured in a biolayer interferometry-based binding assay on Octet Red96® instrument (ForteBio, Inc.). The biotinylation of MraYBS was performed with using EZ-Link® Sulfo-NHS-LC-LC-Biotin Kit (Thermo Fisher Scientific, Inc.). In general, MraYBS (1.7 mg/mL) in 50 μL reaction buffer (0.01 M HEPES pH 7.4, 0.15 M NaCl, 0.005% v/v Surfactant P20), was added by the sulfo-NHS-LC-LC-biotin reagent (1 mM, 1 μL). After incubating for 30 minutes at room temperature, the biotinylated-MraYBS was purified by a Zeba^TM Spin Desalting Columns, 7K MWCO (Thermo Fisher Scientific, Inc.), and the buffer was changed to the binding buffer (30 mM Tris, 10 mM MgCl2, 10 mM NaCl, 0.1 mM Tween-20, pH 8.0) during the purification. Comparing to the non-biotinylated-MraYBS, the biotinylated-MraYBS remains 62% activity measured by the HPLC-based MraY functional assay in 1 h reaction. The biotinylated MraYBS was then immobilized to Super Streptavidin (SSA) Octet tips (ForteBio, Inc.) for reaching a fixed signal of 3 nm. Before the assay starting, the MraYBS-labeled SSA sensors were pre-soaked in binding buffer for 30 min. The association of Park’s analogues with MraYBS were measured by incubating MraYBS-labeled SSA sensors in binding buffer containing various concentrations of samples in Octet Red system. The dissociation was monitored by moving the ligand biosenors from the analyte solution to binding buffer. The dissociation constants (KD) were obtained by nonlinear regression analysis using the specific binding model with the GraphPad Prism program (GraphPad Software, San Diego, CA).

MraYBS [3] = biological target: T1, MraYBS; assay: MraY fluorescence enhancement assay (kinetics, inhibition); assay type: biochemical; conditions: for Inhibition Mode: Lineweaver-Burk
Method: Determine kinetic parameters by MraY fluorescence enhancement assay. The fluorescence enhancement assay was performed in 384-well plate as described by Bugg et al. with slight modifications.5 The reaction mixture containing MraYBS (10 μg/mL), C55P (200 μM) in 30 μL reaction buffer (30 mM Tris, 10 mM MgCl2, 10 mM NaCl, 0.1 mM Tween-20, 2.5% DMSO, pH 8.0) were pre-incubated at 37 °C for 15 min. The reactions were initiated by the addition of various concentrations of NBD-Park’s nucleotide 6 (0 to 160 μM). For inhibition study, a various concentrations of inhibitors were added before the addition of substrate 6. The continuous fluorescence increase over 60 min was monitored with λex 466 nm/λem 535 nm by fluorescence microplate reader (SpectraMax M5, Molecular Devices, LLC) at 37 °C. Linear regressions of increased fluorescent units (FLU) versus time (min) were used to calculate the initial velocities for each reaction. The kinetic parameters values (Ki, KM, and Vmax) were obtained by nonlinear regression analysis using the […] equation with the GraphPad Prism program (GraphPad Software, San

In the case of `CC(=O)N[C@H]1[C@@H](OP(=O)(O)OP(=O)(O)OC[C@H]2O[C@@H](n3ccc(=O)[nH]c3=O)[C@H](O)[C@@H]2O)O[C@H](CO)[C@@H](O)[C@@H]1O[C@H](C)C(=O)N[C@@H](C)C(=O)N[C@H](CCC(=O)N[C@@H](CCCCN)C(=O)N[C@H](C)C(=O)N[C@H](C)C(=O)O)C(=O)O` [Compound 5, Park’s nucleotide], the substrate consumption (MraYBS [1]; C55P (200 μM) as polyprenyl phosphate substrate, substrate 10 μM, within 1 h (60 min)) is reported as “completely consumed” and the Kd (MraYBS [2]) is reported as 120 µM.

In the case of `CC(=O)N[C@H]1[C@@H](OP(=O)(O)OP(=O)(O)OC[C@H]2O[C@@H](n3ccc(=O)[nH]c3=O)[C@H](O)[C@@H]2O)O[C@H](CO)[C@@H](O)[C@@H]1O[C@H](C)C(=O)N[C@@H](C)C(=O)N[C@H](CCC(=O)N[C@@H](CCCCN)C(=O)O)C(=O)O` [Compound 7], the “activity reduced compared with 5” value (MraYBS [1]; after 1 h reaction) is reported as 17%.

Compound `CC(=O)N[C@H]1[C@@H](OP(=O)(O)OP(=O)(O)OC[C@H]2O[C@@H](n3ccc(=O)[nH]c3=O)[C@H](O)[C@@H]2O)O[C@H](CO)[C@@H](O)[C@@H]1O[C@H](C)C(=O)N[C@@H](C)C(=O)N[C@H](CCC(=O)O)C(=O)O` [Compound 8] has a substrate activity remained (MraYBS [1]; after 1 h reaction, compared with 5) of 40%.

`CC(=O)N[C@H]1[C@@H](OP(=O)(O)OP(=O)(O)OC[C@H]2O[C@@H](n3ccc(=O)[nH]c3=O)[C@H](O)[C@@H]2O)O[C@H](CO)[C@@H](O)[C@@H]1O[C@H](C)C(=O)N[C@@H](C)C(=O)O` [Compound 9] was tested, and the “recognized as a MraYBS substrate” value (MraYBS [1]) was “not substrates” and the “binding affinity with MraYBS” value (MraYBS [2]) was “no proper binding affinity”.

For `CC(=O)N[C@H]1[C@@H](OP(=O)(O)OP(=O)(O)OC[C@H]2O[C@@H](n3ccc(=O)[nH]c3=O)[C@H](O)[C@@H]2O)O[C@H](CO)[C@@H](O)[C@@H]1O` [Compound 10, UDP-GlcNAc, reference compound], the “recognized as a MraYBS substrate” value (MraYBS [1]) was “not substrates”.

For `CC(=O)N[C@H]1[C@@H](OP(=O)(O)OP(=O)(O)OC[C@H]2O[C@@H](n3ccc(=O)[nH]c3=O)[C@H](O)[C@@H]2O)O[C@H](CO)[C@H](O)[C@@H]1O[C@H](C)C(=O)N[C@@H](C)C(=O)N[C@H](CCC(=O)N[C@@H](CCCCNc1ccc([N+](=O)[O-])c2nonc12)C(=O)N[C@H](C)C(=O)N[C@H](C)C(=O)O)C(=O)O` [Compound 11], the “substrate under extreme reaction conditions” value (MraYBS [1]) was “did not function as substrates; also recorded: not be a substrate”.

`CC(=O)N[C@H]1[C@@H](OP(=O)(O)OP(=O)(O)OC[C@H]2O[C@@H](n3ccc(=O)[nH]c3=O)[C@H](O)[C@@H]2O)O[C@H](CO)[C@@H](O)[C@@H]1O[C@H](C)C(=O)NCC(=O)N[C@H](CCC(=O)N[C@@H](CCCCNc1ccc([N+](=O)[O-])c2nonc12)C(=O)N[C@H](C)C(=O)N[C@H](C)C(=O)O)C(=O)O` [Compound 15] (UDPMurNAc-G[d(γGlu)]K(NBD)[dA][dA]-OH) was tested, and the “relative activity compared to 6” value (MraYBS [1]; after 1 h reaction) was “about 80%”.

In the case of `CC(=O)N[C@H]1[C@@H](OP(=O)(O)OP(=O)(O)OC[C@H]2O[C@@H](n3ccc(=O)[nH]c3=O)[C@H](O)[C@@H]2O)O[C@H](CO)[C@@H](O)[C@@H]1O[C@H](C)C(=O)N[C@@H](C)C(=O)NCCCC(=O)N[C@@H](CCCCNc1ccc([N+](=O)[O-])c2nonc12)C(=O)N[C@H](C)C(=O)N[C@H](C)C(=O)O` [Compound 16] (UDPMurNAc-A[GABA]K(NBD)[dA][dA]-OH), the “relative activity compared to 6” value (MraYBS [1]; after 1 h reaction) is reported as < 10% and the “binding affinity with MraYBS” value (MraYBS [2]) is reported as “no proper binding affinity”.

For `CC(=O)N[C@H]1[C@@H](OP(=O)(O)OP(=O)(O)OC[C@H]2O[C@@H](n3cc(N)c(=O)[nH]c3=O)[C@H](O)[C@@H]2O)O[C@H](CO)[C@@H](O)[C@@H]1O[C@H](C)C(=O)N[C@@H](C)C(=O)N[C@H](CCC(=O)N[C@@H](CCCCNc1ccc([N+](=O)[O-])c2nonc12)C(=O)N[C@H](C)C(=O)N[C@H](C)C(=O)O)C(=O)O` [Compound 17], the “substrate under extreme reaction conditions” value (MraYBS [1]) was “did not function as substrates; also recorded: not be a substrate”.

`CC(=O)N[C@H]1[C@@H](OP(=O)(O)OP(=O)(O)OC[C@H]2O[C@@H](n3cc(N)c(=O)[nH]c3=O)[C@H](O)[C@@H]2O)O[C@H](CO)[C@@H](O)[C@@H]1O[C@H](C)C(=O)N[C@@H](C)C(=O)O` [Compound 18] was tested, and the inhibitory activity (MraYBS [3]; at 1 mM) was “no inhibition activity”.

For `CC(=O)Nc1cn([C@@H]2O[C@H](COP(=O)(O)OP(=O)(O)O[C@H]3O[C@H](CO)[C@@H](O)[C@H](O[C@H](C)C(=O)N[C@@H](C)C(=O)O)[C@H]3NC(C)=O)[C@@H](O)[C@H]2O)c(=O)[nH]c1=O` [Compound 19], the Kd (MraYBS [2]) was 281 ± 97 µM, the Ki (MraYBS [3]) was 764 ± 127 µM and the “Inhibition Mode” value (MraYBS [3]; 6 as substrate) was “Competitive”.

For `CC(=O)N[C@H]1[C@@H](OP(=O)(O)OP(=O)(O)OC[C@H]2O[C@@H](n3cc(NC(=O)Cc4ccc(C)cc4)c(=O)[nH]c3=O)[C@H](O)[C@@H]2O)O[C@H](CO)[C@H](O)[C@@H]1O[C@H](C)C(=O)N[C@@H](C)C(=O)O` [Compound 21], the Kd (MraYBS [2]; BLI, without C55P) was > 250 µM, the “binding interactions with MraYBS” value (MraYBS [2]; concentration up to 250 μM) was “no sufficient binding interactions” and the inhibition at 1000 µM (MraYBS [3]) was 30%.

With `CC(C)=CCC/C(C)=C/CC/C(C)=C/CC/C(C)=C/CC/C(C)=C/CC/C(C)=C/CC/C(C)=C/CO` [Heptaprenol, reference compound] the conversion % (MraYBS [1]) was 55 ± 3%.

`CC(C)=CCC/C(C)=C/CC/C(C)=C/CC/C(C)=C/CC/C(C)=C/CC/C(C)=C/CO` [Hexaprenol, reference compound] showed a conversion % (MraYBS [1]) of 27 ± 6%.

Work on `CC(C)=CCC/C(C)=C/CC/C(C)=C/CC/C(C)=C/CC/C(C)=C/CC/C(C)=C/CC/C(C)=C/CC/C(C)=C/CC/C(C)=C/CO` [Solanesol, reference compound] yielded a conversion % (MraYBS [1]) of 12 ± 2%.

`CC(C)=CCCC(C)=CCCC(C)=CCCC(C)=CCO` [Tetraprenol, reference compound] gave a conversion % (MraYBS [1]) of 16 ± 5%.

In the case of `CC(C)=CCC/C(C)=C/CC/C(C)=C/CC/C(C)=C/CC/C(C)=C/CC/C(C)=C/CC/C(C)=C/CC/C(C)=C/CC/C(C)=C/CC/C(C)=C/CC/C(C)=C/CO` [Undecaprenol, reference compound], the conversion % (MraYBS [1]) is reported as 96 ± 1%.

Tunicamycins [reference compound] was tested, and the Kd (MraYBS [2]; BLI, without C55P, read-out: KD) was 93 ± 16 µM, the Ki (MraYBS [3]; 6 as substrate, C55P 200 μM, read-out: Ki) was 9 ± 1 µM and the “Inhibition Mode” value (MraYBS [3]; 6 as substrate) was “Competitive”.
